Source: patent US8324405B2, “Chromene derivatives and use thereof as HIF hydroxylase activity inhibitors” (FibroGen, Inc., priority 2008, dated 2012)

target: T1, HIF-PH2 (Homo sapiens, UniProt Q9GZT9); test: HIF-PH assay (14CO2 capture, peptide-dependent turnover); type: biochemical; conditions: Concentration 7.41 μM
T1 construct: made in house; host or cells: insect Hi5 cells
Excerpt: Ketoglutaric acid α-[1-^14C]-sodium salt, alpha-ketoglutaric acid sodium salt, and HPLC purified peptide may be obtained from commercial sources, e.g., Perkin-Elmer (Wellesley Mass.), Sigma-Aldrich, and SynPep Corp. (Dublin Calif.), respectively. Peptides for use in the assay may be fragments of HIFα as described above or as disclosed in International Publication WO 2005/118836, incorporated by reference herein. For example, a HIF peptide for use in the HIF-PH assay is [methoxycoumarin]-DLDLEALAPYIPADDDFQL-amide. HIF-PH, e.g., HIF-PH2 (EGLN1), can be expressed in, e.g., insect Hi5 cells, and partially purified, e.g., through a SP ion exchange chromatography column. Enzyme activity is determined by capturing ^14CO2 using an assay described by Kivirikko and Myllyla (1982, Methods Enzymol. 82:245-304). Assay reactions contain 50 mM HEPES (pH 7.4), 100 μM α-ketoglutaric acid sodium salt, 0.30 μCi/mL ketoglutaric acid α-[1-^14C]-sodium salt, 40 μM FeSO4, 1 mM ascorbate, 1541.8 units/mL Catalase, with or without 50 μM peptide substrate and various concentrations of compound of the invention. Reactions are initiated by addition of HIF-PH enzyme.
The peptide-dependent percent turnover is calculated by subtracting percent turnover in the absence of peptide from percent turnover in the presence of substrate peptide. Percent inhibition and IC50 are calculated using peptide-dependent percent turnover at given inhibitor concentrations. Calculation of IC50 values for each inhibitor is conducted using GraFit software (Erithacus Software Ltd., Surrey UK).
Representative compounds of the invention were analyzed using the HIF-PH assay described above. Table I presents enzyme inhibition data for exemplary compounds against HIF-PH2, a representative HIF prolyl hydroxylase. By inhibiting HIF prolyl hydroxylase, compounds of the invention stabilize HIFα, which then combines with HIFβ to form an active transcription factor that increases expression of various genes involved in numerous beneficial cellular processes.

T1 sequence (Q9GZT9 whole entry, species assumed): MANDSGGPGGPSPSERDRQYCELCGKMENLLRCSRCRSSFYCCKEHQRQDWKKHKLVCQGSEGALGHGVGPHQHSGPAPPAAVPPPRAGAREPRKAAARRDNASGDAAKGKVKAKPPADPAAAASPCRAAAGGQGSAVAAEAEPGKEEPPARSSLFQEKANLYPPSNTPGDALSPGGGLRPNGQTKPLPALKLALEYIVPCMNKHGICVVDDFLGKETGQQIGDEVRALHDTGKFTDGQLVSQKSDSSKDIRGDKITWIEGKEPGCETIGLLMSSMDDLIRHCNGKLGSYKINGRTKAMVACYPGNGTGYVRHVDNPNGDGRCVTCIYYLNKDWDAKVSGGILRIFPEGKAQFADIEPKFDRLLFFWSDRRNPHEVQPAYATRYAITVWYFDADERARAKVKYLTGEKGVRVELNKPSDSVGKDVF

In order of rising inhibition at 7.41 µM:
1. COc1ccc(-c2ccc3oc(=O)c(C(=O)NCC(=O)O)c(O)c3c2)cc1 [Example 3, {[4-Hydroxy-6-(4-methoxy-phenyl)-2-oxo-2H-chromene-3-carbonyl]-amino}-acetic acid]  94%
2. O=C(O)CNC(=O)c1c(O)c2cc(-c3ccc(C(F)(F)F)cc3)ccc2oc1=O [Example 5, {[4-Hydroxy-2-oxo-6-(4-trifluoromethyl-phenyl)-2H-chromene-3-carbonyl]-amino}-acetic acid]  96%
3. O=C(O)CNC(=O)c1c(O)c2cc(-c3ccc(Oc4ccccc4)cc3)ccc2oc1=O [Example 4, {[4-Hydroxy-2-oxo-6-(4-phenoxy-phenyl)-2H-chromene-3-carbonyl]-amino}-acetic acid]  100%

same assay, conditions: Concentration 12.50 μM

In order of rising inhibition at 12.5 µM:
1. O=C(O)CNC(=O)c1c(O)c2cc(F)cc(F)c2oc1=O [Example 18, [(6,8-Difluoro-4-hydroxy-2-oxo-2H-chromene-3-carbonyl)-amino]-acetic acid]  95%
2. O=C(O)CNC(=O)c1c(O)c2cc(F)ccc2oc1=O [Example 16, [(6-Fluoro-4-hydroxy-2-oxo-2H-chromene-3-carbonyl)-amino]-acetic acid]  96%
3. Cc1ccc2c(O)c(C(=O)NCC(=O)O)c(=O)oc2c1 [Example 35, [(4-Hydroxy-7-methyl-2-oxo-2H-chromene-3-carbonyl)-amino]-acetic acid]  97%
4. Cc1cc2oc(=O)c(C(=O)NCC(=O)O)c(O)c2cc1C [Example 15, [(4-Hydroxy-6,7-dimethyl-2-oxo-2H-chromene-3-carbonyl)-amino]-acetic acid]  98%
5. O=C(O)CNC(=O)c1c(O)c2ccc(F)cc2oc1=O [Example 17, [(7-Fluoro-4-hydroxy-2-oxo-2H-chromene-3-carbonyl)-amino]-acetic acid]  98%
6. O=C(O)CNC(=O)c1c(O)c2cc3ccccc3cc2oc1=O [Example 32, [(4-Hydroxy-2-oxo-2H-benzo[g]chromene-3-carbonyl)-amino]-acetic acid]  98%
7. O=C(O)CNC(=O)c1c(O)c2cc(-c3cccs3)ccc2oc1=O [Example 27, [(4-Hydroxy-2-oxo-6-thiophen-2-yl-2H-chromene-3-carbonyl)-amino]-acetic acid]  99%
8. O=C(O)CNC(=O)c1c(O)c2cc(-c3ccco3)ccc2oc1=O [Example 28, [(6-Furan-2-yl-4-hydroxy-2-oxo-2H-chromene-3-carbonyl)-amino]-acetic acid]  100%
9. O=C(O)CNC(=O)c1c(O)c2ccc3ccccc3c2oc1=O [Example 31, [(4-Hydroxy-2-oxo-2H-benzo[h]chromene-3-carbonyl)-amino]-acetic acid]  100%
10. O=C(O)CNC(=O)c1c(O)c2cc3cc(Br)ccc3c(Br)c2oc1=O [Example 34, [(7,10-Dibromo-4-hydroxy-2-oxo-2H-benzo[g]chromene-3-carbonyl)-amino]-acetic acid]  100%

same assay, conditions: Concentration 22.22 μM

In order of rising inhibition at 22.22 µM:
1. O=C(O)CNC(=O)c1c(O)c2ccccc2oc1=O [Example 1, [(4-Hydroxy-2-oxo-2H-chromene-3-carbonyl)-amino]-acetic acid]  96%
2. O=C(O)CNC(=O)c1c(O)c2cc(Cl)cc(Cl)c2oc1=O [Example 13, [(6,8-Dichloro-4-hydroxy-2-oxo-2H-chromene-3-carbonyl)-amino]-acetic acid]  96%
3. O=C(O)CNC(=O)c1c(O)c2cc(Br)ccc2oc1=O [Example 2, [(6-Bromo-4-hydroxy-2-oxo-2H-chromene-3-carbonyl)-amino]-acetic acid]  97%
4. O=C(O)CNC(=O)c1c(O)c2cc(-c3ccc(OCc4ccccc4)cc3)ccc2oc1=O [Example 8, {[6-(4-Benzyloxy-phenyl)-4-hydroxy-2-oxo-2H-chromene-3-carbonyl]-amino}-acetic acid]  100%
5. O=C(O)CNC(=O)c1c(O)c2ccc(Oc3ccccc3)cc2oc1=O [Example 9, [(4-Hydroxy-2-oxo-7-phenoxy-2H-chromene-3-carbonyl)-amino]-acetic acid]  100%
6. Cc1ccc2c(O)c(C(=O)NCC(=O)O)c(=O)oc2c1C [Example 10, [(4-Hydroxy-7,8-dimethyl-2-oxo-2H-chromene-3-carbonyl)-amino]-acetic acid]  100%
7. O=C(O)CNC(=O)c1c(O)c2ccc(-c3ccc(Oc4ccccc4)cc3)cc2oc1=O [Example 11, {[4-Hydroxy-2-oxo-7-(4-phenoxy-phenyl)-2H-chromene-3-carbonyl]-amino}-acetic acid]  100%

For C[C@H](NC(=O)c1c(O)c2ccc(-c3ccc(Oc4ccccc4)cc3)cc2oc1=O)C(=O)O [Example 12, 2-S-{[4-Hydroxy-2-oxo-7-(4-phenoxy-phenyl)-2H-chromene-3-carbonyl]-amino}-propionic acid], the “% Inhibition HIF-PH2” value was 100%.

same assay, conditions: Concentration 50.00 μM

In order of falling inhibition at 50 µM:
1. Cc1cc(Cl)cc2c(O)c(C(=O)NCC(=O)O)c(=O)oc12 [Example 19, [(6-Chloro-4-hydroxy-8-methyl-2-oxo-2H-chromene-3-carbonyl)-amino]-acetic acid]  99%
2. Cc1cccc2c(O)c(C(=O)NCC(=O)O)c(=O)oc12 [Example 20, [(4-Hydroxy-8-methyl-2-oxo-2H-chromene-3-carbonyl)-amino]-acetic acid]  99%
3. Cn1nc(C(F)(F)F)cc1-c1cc(Cl)cc2c(O)c(C(=O)NCC(=O)O)c(=O)oc12 [Example 21, {[6-Chloro-4-hydroxy-8-(2-methyl-5-trifluoromethyl-2H-pyrazol-3-yl)-2-oxo-2H-chromene-3-carbonyl]-amino}-acetic acid]  99%
4. O=C(O)CNC(=O)c1c(O)c2cc(Cl)cc(-c3cccnc3)c2oc1=O [Example 23, [(6-Chloro-4-hydroxy-2-oxo-8-pyridin-3-yl-2H-chromene-3-carbonyl)-amino]-acetic acid]  99%
5. O=C(O)CNC(=O)c1c(O)c2cc(-c3ccccn3)ccc2oc1=O [Example 30, [(4-Hydroxy-2-oxo-6-pyridin-2-yl-2H-chromene-3-carbonyl)-amino]-acetic acid]  99%
6. O=C(O)CNC(=O)c1c(O)c2c(OCc3ccccc3)cccc2oc1=O [Example 46, [(5-Benzyloxy-4-hydroxy-2-oxo-2H-chromene-3-carbonyl)-amino]-acetic acid]  99%
7. O=C(O)CNC(=O)c1c(O)c2c(OCc3ccc(F)cc3)cccc2oc1=O [Example 47, {[5-(4-Fluoro-benzyloxy)-4-hydroxy-2-oxo-2H-chromene-3-carbonyl]-amino}-acetic acid]  99%
8. Cc1ccc(COc2cccc3oc(=O)c(C(=O)NCC(=O)O)c(O)c23)cc1 [Example 48, {[4-Hydroxy-5-(4-methyl-benzyloxy)-2-oxo-2H-chromene-3-carbonyl]-amino}-acetic acid]  99%
9. O=C(O)CNC(=O)c1c(O)c2cc(-c3cccnc3)ccc2oc1=O [Example 29, [(4-Hydroxy-2-oxo-6-pyridin-3-yl-2H-chromene-3-carbonyl)-amino]-acetic acid]  97%

same assay, conditions: Concentration 200.00 μM

In order of falling inhibition at 200 µM:
1. Cc1ccc2oc(=O)c(C(=O)NCC(=O)O)c(O)c2c1 [Example 6, [(4-Hydroxy-6-methyl-2-oxo-2H-chromene-3-carbonyl)-amino]-acetic acid]  100%
2. O=C(O)CNC(=O)c1c(O)c2cccc(Cl)c2oc1=O [Example 7, [(8-Chloro-4-hydroxy-2-oxo-2H-chromene-3-carbonyl)-amino]-acetic acid]  100%
3. O=C(O)CNC(=O)c1c(O)c2c(ccc3ccccc32)oc1=O [Example 33, [(1-Hydroxy-3-oxo-3H-benzo[f]chromene-2-carbonyl)-amino]-acetic acid]  100%
4. CCOC(=O)CNC(=O)c1c(O)c2cc(Cl)cc(Cl)c2oc1=O [Example 14, [(6,8-Dichloro-4-hydroxy-2-oxo-2H-chromene-3-carbonyl)-amino]-acetic acid ethyl ester]  43%
